# Laboratory results from patent publication US20070248646A1, “Use of azurocidin inhibitors in prevention and treatment of ocular vascular leakage” (priority 2006, published 2007).
# Tests used:
# [1] = system: retinal vascular permeability; assay: Qualitative evaluation of retinal vascular permeability with 20-kDa FITC conjugated dextran; assay type: in vivo, Brown Norway rats; conditions: flat-mount retinas, VEGF-injected eyes with or without aprotinin
# Protocol: Retinal vascular permeability was documented in a histological manner by intravenous injection of 20-kDa FITC conjugated dextran (50 mg/Kg, Sigma Aldrich). Rats were sacrificed 30 minutes later with intracardiac perfusion of 4% paraformaldehyde to fix the dextran conjugate in the tissues. The retinas were carefully dissected and flat mounted in anti-fading medium (Vector Laboratories). Flat-mount retinas were examined by fluorescent microscopy. Digital color enhancement (green) was equally applied to all images for improved visualization of fluorescence.
# [2] = system: VEGF-induced retinal leukostasis; assay: Concanavalin A ex vivo retinal leukostasis quantification, VEGF-induced; assay type: in vivo, Brown Norway rats
# Protocol: This study employed Brown Norway rats, AZ (1 μg, 10 μg, 20 μg), PBS, aprotinin, VEGF164, and polyclonal anti-AZ antibody (1 μg). Briefly, Brown Norway rats received intravitreal injections of AZ (1 μg, 10 μg and 20 μg) in one eye and PBS in the contralateral eye. BRB breakdown was quantified using the Evans Blue (EB) technique at 1 hour, 3 hours, and 24 hours after intravitreal injection of AZ or PBS. To assess whether AZ induced retinal leukostasis, firm leukocyte adhesion was quantified at 3 hours and 24 hours post AZ injection (10 μg) using the ex vivo conconavalin leukostasis assay. To block AZ, rats were treated with a single intravenous injection of aprotinin (30,000KIU), prior to the intravitreal injections. To investigate whether AZ was involved in VEGF-induced BRB breakdown, rats received intravitreal injections of 50 ng recombinant mouse VEGF164 in one eye and PBS in the other eye and were treated intravenously with aprotinin (50,000KIU every eight hours) or polyclonal anti-AZ antibody (1 μg). BRB breakdown and retinal leukostasis were quantified 24 hours after VEGF injection.
# Deep anesthesia was induced with xylazine and ketamine as above. The chest cavity was carefully opened and the left ventricle was entered with a 14-gauge perfusion cannula fixed to a vessel clamp; care was taken to avoid ventricular obstruction. The right atrium was opened with a 12-gauge needle to achieve outflow. With the heart providing the motive force, 250 ml/kg PBS (roughly 30 ml of PBS quickly) was perfused to clear erythrocytes and non-sticking leukocytes, followed by perfusion with FITC-coupled Concanavalin A lectin (20 μg/ml in PBS, pH 7.4, total concentration 5 mg/kg) (Vector Labs, Burlingame, Calif.). The latter stained adherent leukocytes and the vascular endothelium. Lectin staining was followed by PBS perfusion (30 ml quickly).
# The retinas were flat-mounted in a water-based fluorescence-anti-fading medium (Southern Biotechnology, Birmingham, Ala.) and imaged via fluorescence microscopy (Leica upright microscope, Hamamatsu digital high sensitivity camera, openlab imaging software). The total number of adherent leukocytes per retina was counted in a masked fashion.
# [3] = system: intravitreal leukocyte accumulation in EIU; assay: Intravitreal leukocyte accumulation in Endotoxin-Induced-Uveitis; assay type: in vivo, Lewis rats; conditions: 24 hours post LPS-injection; aprotinin 50,000KIU at 0, 8, 16 hours; EIU 343.6±11.7
# Protocol: (§1) EIU was induced in Lewis rats via footpad injection of 100 μl (1 mg/ml) lipopolysaccharide (LPS). Control animals received an equal volume of saline. The experiments were conducted 24 hours after LPS injection. At this time point, several experimental parameters were assessed.
# (§2) To block AZ, animals received 5 ml of aprotinin (Trasylol®; 50,000KIU). The first injection was given at the same time as the footpad injection, followed by a second injection 8 hours later and a third injection 16 hours later. The control animals received and equal amounts of vehicle control. LPS was purchased in lyophilized form from Sigma (#L6511).
# To assess leukocyte extravasations into the vitreal cavity during EIU, histological slides of the whole eyes of treated rats were generated and the number of leukocytes in the vitreous cavity of these sections was counted. To do so, whole eyes were placed in 4% paraformaldehyde for fixation. Gradual infiltration of graded alcohols was followed by xylene and finally by liquid paraffin. Paraffin submerged eyes were then cooled to harden. Six-micron sections were cut on a Leica microtome and placed on slides. Sections were stained with hematoxylin and eosin and coverslipped.
# [4] = system: retinal vascular leakage in diabetic retinopathy; assay: Retinal vascular leakage in streptozotocin-induced diabetic retinopathy; assay type: in vivo, Long-Evans rats; conditions: two weeks after streptozotocin-induced diabetes; aprotinin 50,000 KIU, systemic
# Protocol: After an overnight fast, Long-Evans rats (Charles River, Wilmington, Mass.), weighing 200-250 g, received single 60 mg/kg intraperitoneal injections of streptozotocin (Sigma, St. Louis, Mo.) in 10 mM citrate buffer (pH 4.5). Control nondiabetic animals received citrate buffer alone. Animals with blood glucose levels greater than 250 mg/dl 24 hours after the streptozotocin injections were considered diabetic. The rats were fed standard laboratory chow and allowed free access to water. Before each experiment, the diabetic state was reconfirmed to be 250 mg/dl or higher.
# Asterisks indicate statistical significance.
# [5] = system: retinal leukostasis in EIU; assay: Retinal leukostasis in Endotoxin-Induced-Uveitis (ConA staining); assay type: in vivo, Lewis rats; conditions: 24 hours post EIU induction; aprotinin 50,000KIU at 0, 8, 16 hours; EIU 106.6±6.5, normal 17±1.2; n=6
# Protocol: as §1, §2
# Under deep anesthesia, a rat's chest cavity was opened, and its left ventricle was cannulated to allow perfusion (Ishida (2003) supra). The rat's right atrium was opened to achieve outflow. […] The eyes were enucleated, and the retinas were dissected and flatmounted in a water-based fluorescence anti-fading medium (Fluoromount; Southern Biotechnology, Birmingham, Ala.) and imaged by fluorescence microscopy (Leica, FITC filter). […] Leukocytes in arteries, veins, and capillaries of each retinal tissue were counted, and the total number of adherent leukocytes per retina was calculated. […]
substance,measurement,setting,value
aprotinin,retinal distribution of intravenously injected 20 kDa FITC-conjugated dextran,[1],fluorescein staining more localized to the retinal vasculature
same,leukocyte adhesion as a percentage of leukocyte adhesion in the contralateral PBS-injected eye,"[2]; 24 hours after 50 ng VEGF, aprotinin 50,000 KIU i.v. 1 hour before, 8 and 16 hours after",252%
same,"leukocyte adhesion, VEGF-injected vs VEGF- and aprotinin-treated eyes",[2]; P>0.05,did not differ significantly
same,number of leukocytes found intravitreally,[3],119.2±8.4
same,vascular leakage (normalized BRB leakage),[4],comparable to that of normal animals
same,retinal leukostasis (firmly adhering leukocytes per retina),[5],32.4±2.9 cells
